Columns and labels:
[1] = tested on: Aβ42; test: Demonstration of in vivo efficacy: Aβ42 lowering in brain after single oral dose (Table 13); settings: mouse brain soluble fraction, ELISA, mean, compared to untreated animals
Description: (§1) To determine whether acute administration of an Aβ42 lowering agent would reduce Aβ42 levels in vivo, non-transgenic rodents, e.g. mice or rats were used. Alternatively, two to three month old Tg2576 mice expressing APP695 containing the “Swedish” variant can be used or a transgenic mouse model developed by Dr. Fred Van Leuven (K. U. Leuven, Belgium) and co-workers, with neuron-specific expression of a clinical mutant of the human amyloid precursor protein [V717I] (Moechars et al., 1999 J. Biol. Chem. 274, 6483). Young transgenic mice have high levels of Aβ in the brain but no detectable Aβ deposition. At approximately 6-8 months of age, the transgenic mice start to display spontaneous, progressive accumulation of β-amyloid (Aβ) in the brain, eventually resulting in amyloid plaques within the subiculum, hippocampus and cortex. Animals treated with the Aβ42 lowering agent were examined and compared to those untreated or treated with vehicle and brain levels of soluble Aβ42 and total Aβ would be quantitated by standard techniques, for example, using ELISA. Treatment periods varied from hours to days and were adjusted based on the results of the Aβ42 lowering once a time course of onset of effect could be established.
(§2) A typical protocol for measuring Aβ42 lowering in vivo is shown but it is only one of many variations that could be used to optimize the levels of detectable Aβ. For example, Aβ42 lowering compounds were formulated in 20% of Captisol® (a sulfobutyl ether of β-cyclodextrin) in water or 20% hydroxypropyl β cyclodextrin. The Aβ42 lowering agents were administered as a single oral dose or by any acceptable route of administration to overnight fasted animals. After four hours, the animals were sacrificed and Aβ42 levels were analysed.
(§3) Blood was collected by decapitation and exsanguinations in EDTA-treated collection tubes. Blood was centrifuged at 1900 g for 10 minutes at 4° C. and the plasma recovered and flash frozen for later analysis. The brain was removed from the cranium and hindbrain. The cerebellum was removed and the left and right hemisphere were separated. The left hemisphere was stored at −18° C. for quantitative analysis of test compound levels. The right hemisphere was rinsed with phosphate-buffered saline (PBS) buffer and immediately frozen on dry ice and stored at −80° C. until homogenization for biochemical assays.
(§4) Mouse brains were resuspended in 10 volumes of 0.4% DEA (diethylamine)/50 mM NaCl pH 10 (for non-transgenic animals) or 0.1% 3-[3-cholamidopropyl)-dimethyl-ammonio]-1-propanesulfonate (CHAPS) in tris buffered saline (TBS) (for transgenic animals) containing protease inhibitors (Roche-11873580001 or 04693159001) per gram of tissue, e.g. for 0.158 g brain, add 1.58 ml of 0.4% DEA. All samples were sonicated for 30 seconds on ice at 20% power output (pulse mode). Homogenates were centrifuged at 221.300×g for 50 min. The resulting high speed supernatants were then transferred to fresh tubes and were optionally further purified before the next step. A portion of the supernatant was neutralized with 10% 0.5 M Tris-HCl and this was used to quantify Aβtotal.
The obtained supernatants were purified with Water Oasis HLB reverse phase columns (Waters Corp., Milford, Mass.) to remove non-specific immunoreactive material from the brain lysates prior subsequent Aβ detection. Using a vacuum manifold, all solutions were passed through the columns at a rate of approximately 1 ml per minute, so the vacuum pressure was adjusted accordingly throughout the procedure. Columns were preconditioned with 1 ml of 100% MeOH, before equilibration with 1 ml of H2O. Non-neutralized brain lysates were loaded onto the columns. The loaded samples were then washed twice with the first wash performed with 1 ml of 5% MeOH, and the second wash with 1 ml of 30% MeOH. Finally, the Aβ was eluted from the columns and into 100×30 mm glass tubes, with a solution of 90% MeOH with 2% NH4OH. […]

[2] = tested on: Aβtotal; test: Screening for γ-secretase-modulating activity, Method 1: Aβtotal sandwich ELISA in supernatant of SKNBE2 cells carrying APP 695 wild type (Tables 12a, 12b); assay type: cell-based
Summary of the method: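 Aβtotal in conditioned medium was measured by 6E10/biotin-4G8 sandwich ELISA with fluorogenic peroxidase read-out. Cells were wild-type APP 695 SKNBE2, treated 18 hours in glutamine-supplemented Ultraculture. IC50 came from 4-parameter fits of inhibition, or percent of control, against concentration; toxicity was checked by WST-1.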

[3] = tested on: Aβ42; test: Screening for γ-secretase-modulating activity, Method 1: Aβ42 sandwich ELISA in supernatant of SKNBE2 cells carrying APP 695 wild type (Tables 12a, 12b); assay type: cell-based
Summary of the method: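 Aβ42 levels in the supernatant were measured by ELISA with 450 nm colorimetric read-out after 18 h compound exposure of wild-type APP695 SKNBE2 cells plated one day earlier. IC50 was fitted with a 4-parameter model, either with fixed top/bottom and a Hill slope of 1, or as averaged values from % of vehicle control; WST-1 was used to flag cytotoxicity.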

[4] = tested on: Aβtotal; test: Demonstration of in vivo efficacy: Aβtotal lowering in brain after single oral dose (Table 13); settings: mouse brain soluble fraction, mean, compared to untreated animals
Description: as §1, §2, §3
as §4, with “Aβtotal. […]” for “Aβtotal.”
In this model at least 20% Aβ42 lowering compared to untreated animals would be advantageous.

[5] = tested on: Aβtotal; test: Screening for γ-secretase-modulating activity, Method 2: Aβtotal Alphalisa in supernatant of SKNBE2 cells carrying APP 695 wild type (Table 12c); assay type: cell-based; settings: Homo sapiens, Method 2, Table 12c, incubated overnight
Summary of the method: (§5)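 SKNBE2 cells expressing wild-type APP695, 10^4 cells/well, exposed to compound overnight at 37 °C; secreted Aβ42 and Aβtotal in supernatant measured by AlphaLISA sandwich immunoassays (Aβ42: C-terminal/N-terminal antibodies; Aβtotal: N-terminal/4G8). IC50 from 4-parameter fit of % untreated control.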

[6] = tested on: Aβ42; test: Screening for γ-secretase-modulating activity, Method 2: Aβ42 Alphalisa in supernatant of SKNBE2 cells carrying APP 695 wild type (Table 12c); assay type: cell-based; settings: Homo sapiens, Method 2, Table 12c, incubated overnight
Summary of the method: as §5

[7] = Method 1, Table 12a, SKNBE2 cells carrying APP 695 wild type, compounds 18 hours, ELISA, curve top and bottom fixed to 100 and 0, hill slope 1
[8] = Table 12b, Method 1, SKNBE2 cells carrying APP 695 wild type, cell supernatant ELISA, averaged IC50 values
[9] = Table 12b, Method 1, SKNBE2 cells carrying APP 695 wild type, cell supernatant ELISA, averaged IC50 values, percentage of control vs log concentration
[10] = Homo sapiens, Method 1, Table 12a, SKNBE2 cells carrying APP 695 wild type, compounds 18 hours, ELISA, curve top and bottom fixed to 100 and 0, hill slope 1
[11] = Homo sapiens, Table 12b, Method 1, SKNBE2 cells carrying APP 695 wild type, cell supernatant ELISA, averaged IC50 values
[12] = Homo sapiens, Table 12b, Method 1, SKNBE2 cells carrying APP 695 wild type, cell supernatant ELISA, averaged IC50 values, percentage of control vs log concentration

| SMILES | IC50 [2, 7] | IC50 [2, 8] | IC50 [3, 7] | IC50 [3, 9] | IC50 [2, 10] | IC50 [2, 11] | IC50 [3, 10] | IC50 [3, 12] | melting point | IC50 [5] | IC50 [6] | Aβ42 (% Ctrl)_Mean [1] | Aβtotal (% Ctrl)_Mean [4] |
| --- | --- | --- | --- | --- | --- | --- | --- | --- | --- | --- | --- | --- | --- |
| CCCc1nc2c(Nc3ccc(-n4cnc(C)c4)c(OC)c3)cccn2c1CC [Compound 10] | > 3000 nM | > 3020 nM | 54 nM | 51 nM |  |  |  |  |  |  |  | 67 % Ctrl | 104 % Ctrl |
| COc1cc(Nc2cccn3c(C)c(-c4ccccc4F)nc23)ccc1-n1cnc(C)c1 [Compound 18] |  |  |  |  | > 10000 nM | > 10000 nM | 25 nM | 25 nM |  |  |  | 73 % Ctrl | 101 % Ctrl |
| COc1cc(Nc2cccn3c(C)c(-c4ccc(F)cc4F)nc23)ccc1-n1cnc(C)c1 [Compound 26] |  |  |  |  | > 3000 nM | > 3020 nM | 11 nM | 11 nM |  |  |  | 75 % Ctrl | 94 % Ctrl |
| COc1cc(Nc2cccn3cc(-c4ccc(C#N)cc4)nc23)ccc1-n1cnc(C)c1 [Compound 31] |  |  |  |  | > 5000 nM | > 30200 nM | 595 nM | 589 nM | 193.4 °C |  |  |  |  |
| COc1ccccc1-c1cn2cccc(Nc3ccc(-n4cnc(C)c4)c(OC)c3)c2n1 [Compound 32] |  |  |  |  | > 5000 nM | > 5010 nM | 114 nM | 105 nM |  |  |  | 81 % Ctrl | 113 % Ctrl |
| COc1cccc(-c2nc3c(Nc4ccc(-n5cnc(C)c5)c(OC)c4)cccn3c2C)c1 [Compound 34] |  |  |  |  | > 3000 nM | > 3020 nM | 9 nM | 9 nM |  |  |  | 63 % Ctrl | 100 % Ctrl |
| COc1cccc(-c2nc3c(Nc4ccc(-n5ccnc5)c(OC)c4)cccn3c2C)c1 [Compound 35] |  |  |  |  | > 1000 nM | > 3020 nM | 19 nM | 19 nM | 124.2 °C |  |  |  |  |
| COc1cc(Nc2cccn3c(C)c(-c4ccc(CC(C)C)cc4)nc23)ccc1-n1cnc(C)c1 [Compound 38] |  |  |  |  | > 3000 nM | > 3020 nM | 54 nM | 51 nM | 224.6 °C |  |  |  |  |
| CCN(CC)c1ccc(-c2cn3cccc(Nc4ccc(-n5cnc(C)c5)c(OC)c4)c3n2)cc1 [Compound 39] |  |  |  |  | > 3000 nM | > 3020 nM | 75 nM | 68 nM |  |  |  | 82 % Ctrl | 108 % Ctrl |
| COc1cc(Nc2cccn3cc(-c4ccc(N5CCOCC5)cc4)nc23)ccc1-n1cnc(C)c1 [Compound 40] |  |  |  |  | > 3000 nM | > 3020 nM | 62 nM | 56 nM |  |  |  | 80 % Ctrl | 99 % Ctrl |

Second part, led by results:

| IC50 [2, 7] | IC50 [2, 8] | IC50 [3, 7] | IC50 [3, 9] | IC50 [2, 10] | IC50 [2, 11] | IC50 [3, 10] | IC50 [3, 12] | melting point | IC50 [5] | IC50 [6] | SMILES | Aβ42 (% Ctrl)_Mean [1] | Aβtotal (% Ctrl)_Mean [4] |
| --- | --- | --- | --- | --- | --- | --- | --- | --- | --- | --- | --- | --- | --- |
|  |  |  |  | > 3000 nM | > 3020 nM | 10 nM | 10 nM |  |  |  | COc1cc(Nc2cccn3cc(-c4ccc(F)cc4C)nc23)ccc1-n1cnc(C)c1 [Compound 52] | 66 % Ctrl | 91 % Ctrl |
|  |  |  |  | > 3000 nM | > 3020 nM | 29 nM | 29 nM | 159.9 °C |  |  | CCc1cn(-c2ccc(Nc3cccn4c(C)c(-c5cccc(OC)c5)nc34)cc2OC)cn1 [Compound 63] |  |  |
|  |  |  |  |  |  |  |  |  | > 3020 nM | 68 nM | COc1cc(Nc2cccn3cc(-c4ccccc4C)nc23)ccc1-n1cnc(C)n1 [Compound 70] | 84 % Ctrl | 99 % Ctrl |
|  |  |  |  |  | > 3020 nM |  | 123 nM |  |  |  | Cc1ncn(-c2ccc(Nc3cccn4cc(-c5cc(C(F)(F)F)ccc5C)nc34)cc2F)n1 [Compound 74] | 95 % Ctrl | 102 % Ctrl |
|  |  |  |  | > 10000 nM | > 10000 nM | 6440 nM | 9550 nM | 213.1 °C |  |  | Cc1cn2cccc(Nc3ccc(-n4cnc(C)n4)cc3)c2n1 [Compound 78] |  |  |
|  |  |  |  |  | > 10000 nM |  | 7410 nM | 230.6 °C |  |  | Cc1ncn(-c2ccc(Nc3cccn4c(C)c(C)nc34)cc2)n1 [Compound 79] |  |  |
|  |  |  |  |  | > 10000 nM |  | 3800 nM | 147.5 °C |  |  | COc1cc(Nc2cccn3cc(C)nc23)ccc1-n1cncn1 [Compound 80] |  |  |
|  | > 10000 nM |  | 355 nM |  |  |  |  |  |  |  | Cc1ncn(-c2ccc(Nc3cccn4c(C)c(-c5ccccc5Cl)nc34)nc2)n1 [Compound 83] | 89 % Ctrl | 104 % Ctrl |
|  | > 10000 nM |  | 117 nM |  |  |  |  |  |  |  | Cc1ncn(-c2ccc(Nc3cccn4cc(-c5ccccc5C)nc34)cn2)n1 [Compound 86] | 86 % Ctrl | 96 % Ctrl |
|  | > 10000 nM |  | 25 nM |  |  |  |  |  |  |  | Cc1ncn(-c2ccc(Nc3cccn4c(C)c(-c5ccccc5Cl)nc34)cn2)n1 [Compound 87] | 86 % Ctrl | 101 % Ctrl |
|  |  |  |  |  | > 3020 nM |  | 115 nM |  |  |  | COc1ccc(C)c(-c2cn3cccc(Nc4ccc(-n5cnc(C)n5)c(F)c4)c3n2)c1 [Compound 94] | 96 % Ctrl | 101 % Ctrl |
|  | > 3020 nM |  | 32 nM |  |  |  |  |  |  |  | Cc1ncn(-c2ccc(Nc3cccn4cc(-c5ccc(F)cc5C)nc34)cn2)n1 [Compound 98] | 84 % Ctrl | 97 % Ctrl |
|  |  |  |  |  | > 3020 nM |  | 178 nM | 210 °C |  |  | Cc1ccc(C(F)(F)F)cc1-c1cn2cccc(Nc3ccc(-n4ncnc4C)c(F)c3)c2n1 [Compound 130] |  |  |

From patent publication US8546440B2, “Substituted bicyclic imidazole derivatives as gamma secretase modulators” (Janssen Pharmaceuticals, Inc., priority 2008, dated 2013)
